Values of other authors as cited in US12458707B2, “Targeted delivery of immunoregulatory drugs” (The Brigham and Women's Hospital, Inc., priority 2014, dated 2025).

Test system: NOD mice
Conditions: 2.5 mg/kg/day every other day

## C=CC[C@@H]1/C=C(\C)C[C@H](C)C[C@H](OC)[C@H]2O[C@@](O)(C(=O)C(=O)N3CCCC[C@H]3C(=O)O[C@H](/C(C)=C/[C@@H]3CC[C@@H](O)[C@H](OC)C3)[C@H](C)[C@@H](O)CC1=O)[C@H](C)C[C@@H]2OC [TAC, Tacrolimus]
  suppression of T1D: efficiently suppress T1D
